The assay addresses Jack bean urease (Canavalia ensiformis, UniProt P07374). Nature of the assay: phenol red urease assay, […] nm. It counts as biochemical.
The mark [1] stands for this setting: 100 mM urea, 10 mM phosphate pH 7.0, 37°C, 30 min, read-out: IC50.

Like-named read-outs stand apart in the source and are kept apart here.

Chain of Jack bean urease (P07374 whole entry): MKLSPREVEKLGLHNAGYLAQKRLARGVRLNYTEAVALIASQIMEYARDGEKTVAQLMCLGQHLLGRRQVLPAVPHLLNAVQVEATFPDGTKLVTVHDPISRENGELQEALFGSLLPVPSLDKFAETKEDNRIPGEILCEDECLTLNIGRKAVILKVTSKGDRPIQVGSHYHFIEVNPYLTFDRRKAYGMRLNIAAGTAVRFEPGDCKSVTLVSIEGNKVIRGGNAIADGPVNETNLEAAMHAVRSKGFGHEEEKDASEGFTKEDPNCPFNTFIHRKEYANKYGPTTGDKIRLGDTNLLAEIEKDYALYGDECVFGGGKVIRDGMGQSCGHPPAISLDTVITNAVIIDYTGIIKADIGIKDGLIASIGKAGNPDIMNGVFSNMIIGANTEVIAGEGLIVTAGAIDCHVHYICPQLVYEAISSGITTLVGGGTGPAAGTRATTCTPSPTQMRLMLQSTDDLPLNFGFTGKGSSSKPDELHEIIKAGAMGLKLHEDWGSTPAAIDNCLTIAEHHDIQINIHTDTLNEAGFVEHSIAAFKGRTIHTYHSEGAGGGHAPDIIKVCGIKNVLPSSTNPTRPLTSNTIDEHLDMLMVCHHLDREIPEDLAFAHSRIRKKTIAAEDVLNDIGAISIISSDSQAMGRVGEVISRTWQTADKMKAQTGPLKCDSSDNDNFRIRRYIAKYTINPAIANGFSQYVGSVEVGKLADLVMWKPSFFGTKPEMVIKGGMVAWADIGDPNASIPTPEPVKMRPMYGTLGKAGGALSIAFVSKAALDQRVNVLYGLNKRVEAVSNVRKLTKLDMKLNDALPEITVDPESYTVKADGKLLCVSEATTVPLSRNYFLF

Regarding `Cc1cccc(C2C(C#N)=C(N)Oc3[nH]c(=O)[nH]c(=O)c32)c1` (stereo not drawn) [4f, 7-Amino-6-cyano-5-(3-methylphenyl)-5H-pyrano[2,3-d]pyrimidine-2,4(1H,3H)-diones], under setting [1], the IC50 amounted to 41.1 µM. The compound `COc1cccc(C2C(C#N)=C(N)Oc3[nH]c(=O)[nH]c(=O)c32)c1` (stereo not drawn) [4h, 7-Amino-6-cyano-5-(3-methoxylphenyl)-5H-pyrano[2,3-d]pyrimidine-2,4(1H,3H)-diones] registered an IC50 of 106 µM. For `N#CC1=C(N)Oc2[nH]c(=O)[nH]c(=O)c2C1c1c(Cl)cccc1Cl` (stereo not drawn) [4k, 7-Amino-6-cyano-5-(2,6-dichlorophenyl)-5H-pyrano[2,3-d]pyrimidinone], under setting [1], the IC50 was found to be 41 µM.

Values taken from paper PMC3584946, “Three-component synthesis of pyrano[2,3-d]-pyrimidine dione derivatives facilitated by sulfonic acid nanoporous silica (SBA-Pr-SO3H) and their docking and urease inhibitory activity” (DARU Journal of Pharmaceutical Sciences, 2013).
